Reference: PubChem BioAssay (NCI)
“And” between values parts separate entries of the source, which are not always exact repeats. Equal entries are not always repeated.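 1) Cells in 96-well plates. 2) Compound, 48 h, 5 concentrations. 3) Linear interpolation between surrounding doses. 4) Unreached endpoint = highest concentration. GI50 marks 50% less growth. The concentration for full growth arrest is given as TGI.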

What was measured:
Test in all cases: NCI anticancer screen, dose series, 48 h
SK-OV-3 ovarian = tested on: SK-OV-3 ovarian
TK-10 renal = tested on: TK-10 renal
SK-MEL-28 melanoma = tested on: SK-MEL-28 melanoma
786-0 renal = tested on: 786-0 renal
SW-620 colon = tested on: SW-620 colon
U251 CNS = tested on: U251 CNS
SF-268 CNS = tested on: SF-268 CNS
HS 578T breast = tested on: HS 578T breast
HL-60(TB) leukemia = tested on: HL-60(TB) leukemia
HOP-62 NSCLC = tested on: HOP-62 NSCLC

Row | Compound | TGI (SK-OV-3 ovarian) | TGI (TK-10 renal) | TGI (SK-MEL-28 melanoma) [µM] | TGI (786-0 renal) | TGI (SW-620 colon) | TGI (U251 CNS) | TGI (SF-268 CNS) | TGI (HS 578T breast) [µM] | TGI (HL-60(TB) leukemia) | TGI (HOP-62 NSCLC) | GI50 (SK-OV-3 ovarian) [µM] | GI50 (TK-10 renal) [µM] | GI50 (SK-MEL-28 melanoma) [µM] | GI50 (786-0 renal) [µM] | GI50 (SW-620 colon) [µM] | GI50 (U251 CNS) [µM] | GI50 (SF-268 CNS) [µM] | GI50 (HS 578T breast) [µM] | GI50 (HL-60(TB) leukemia) [µM] | GI50 (HOP-62 NSCLC) [µM]
1 | Cc1ccc(CNc2ccc(Br)cc2)cc1 | > 100 µM | > 100 µM | > 100 | > 100 µM | > 100 µM | > 100 µM | > 100 µM | > 100 | > 100 µM | > 100 µM |  |  |  |  |  |  |  |  |  | 
2 | COc1ccc(-c2cc(-c3ccc(Nc4nc(Nc5ccccc5)nc(Nc5ccc(Cl)cc5)n4)cc3)nc(N)n2)cc1 | > 50 µM | > 50 µM | 26.5 | 33.1 µM | 44.9 µM | > 50 µM | 46.8 µM | 32.2 | 17.9 µM | 33.1 µM | 22.7 | 14.2 | 10.9 | 11.5 | 13.1 | 8.41 | 13.3 | 6.65 | 2.31 | 10.3
3 | COc1cc(-c2cc(/C=C/C(=O)c3ccc(F)c(F)c3)[nH]n2)cc(OC)c1OC | 58.6 µM | 7.41 µM | 28.2 | 15.7 µM | > 100 µM | 15.7 µM | > 100 µM | 36.8 | 6.03 µM | > 100 µM | 3.53 | 2.29 | 5.31 | 3.35 | 3.42 | 2.9 | 3.15 | 3.58 | 2.48 | 4.39
4 | CC1CC2C3CCC4=CC(=O)C=CC4(C)C3(F)C(O)CC2(C)C1(O)C(=O)COP(=O)(O)O (stereo not drawn) | > 500 µM | > 500 µM | > 500 | > 500 µM | > 500 µM | > 500 µM | > 500 µM | > 500 | > 500 µM | > 500 µM | > 500 | > 500 | > 500 | > 500 | > 500 | > 500 | > 500 | > 500 | > 500 | > 500
5 | CCOC(=O)c1c(-c2ccccc2)[n+](=O)c2cc(Cl)c(Cl)cc2n1[O-] | 33.6 µM | 4.07 µM | 36.3 | 2.87 µM | 37.1 µM | 6.01 µM | 33.9 µM | 49.9 | > 100 µM | 18.9 µM | 18.5 | 1.57 | 13.7 | 1.54 | 16.5 | 2.33 | 16.6 | 20.1 | 2.68 | 4.06
6 | COC(=O)NC1C(C)OC(OC2C/C=C(/C)C3C=CC4C(OC5CC(OC6CCC(OC7CC(O)C(OC8CCC(O)C(C)O8)C(C)O7)C(C)O6)C(OC(C)=O)C(C)O5)C(C)CC(C)C4C3(C)/C(O)=C3/C(=O)OC4(CC(C=O)=CC(O)C4/C=C\2C)C3=O)CC1(C)[N+](=O)[O-] (stereo not drawn) | 7.51 µM and 8.97 µM | 6.2 µM and 1.14 µM |  | 2.2 µM and 0.518 µM | 4.74 µM and 1.11 µM | 0.901 µM and 0.499 µM | 11.2 µM and 9.73 µM | 3.76 | 4.43 µM and 2.53 µM | 1.81 µM and 0.667 µM | 2.85 | 0.418 | 0.0311 | 0.21 | 0.212 | 0.179 | 0.105 |  | 0.354 | 0.275
7 | c1ccc(-c2oc(-c3ccccc3)c(CN3CCCCC3)c2CN2CCCCC2)cc1 | 17 µM | 19 µM | 3.02 | 12.7 µM | 16.4 µM | 14.2 µM | 20.6 µM | 15.8 | 5.28 µM | 21.8 µM | 3.97 | 4.58 | 1.53 | 2.8 | 3.05 | 3.55 | 6.04 | 3.14 | 1.96 | 4.69
8 | CCOC(=O)CSc1cc(Cl)c(C)cc1S(=O)(=O)/N=C(/N=C/c1ccc([N+](=O)[O-])s1)NNC | 67.1 µM | 67.6 µM | 29.7 | 42.5 µM | > 100 µM | 38.7 µM | > 100 µM | 76.7 | 53.7 µM | 31.3 µM | 24.3 | 23 | 16.1 | 20.2 | 31.1 | 17 | 29.8 | 28 | 21.7 | 13.3
9 | Oc1ccc(Cl)cc1C(c1cc(Cl)ccc1O)C(Cl)(Cl)Cl | 9.76 µM | 5.01 µM | 4.02 | 3.99 µM | 3.3 µM | 3.45 µM | 3.41 µM | 4.45 | 5.13 µM | 3.64 µM | 2.94 | 2.27 | 1.8 | 2 | 1.73 | 1.71 | 1.77 | 1.81 | 2.45 | 1.7
10 | COc1ccc2nc3cc(Cl)ccc3c(NCCCNCCO)c2c1 | 3.33 µM | 3.2 µM | 3.06 | 1.96 µM | 2.68 µM | 2.12 µM | 2.66 µM | 5.62 | 2.64 µM | 2.14 µM | 0.635 | 0.587 | 1.38 | 0.531 | 0.304 | 0.455 | 0.577 | 1.48 | 0.613 | 0.393
11 | CN(C)c1ccc(/C=C\c2ccnc3ccccc23)cc1 | > 100 µM | > 100 µM | > 80.5 | > 39.2 µM | > 96 µM | > 100 µM | > 100 µM | > 47.9 | > 86.8 µM | > 67.9 µM | 5.25 | 14.7 | 21.7 | 6.03 | 5.78 | 9.43 | 21.8 | 13 | > 20.2 | 7.5
12 | CSC1=NC(=Nc2c(C)cccc2C)C2(CCC(C(C)(C)C)CC2)N1c1ccc(Cl)cc1 (stereo not drawn) | > 100 µM | > 100 µM | > 100 | > 100 µM | > 100 µM | > 100 µM | > 100 µM | > 100 | > 100 µM | > 100 µM | > 100 | 39.8 | 99.6 | 68.7 | 27 | 8.04 | 32.5 | 95.8 | 7.94 | > 100
